From ChEMBL document CHEMBL1201862, “PubChem BioAssay data set” (2004) come the findings set out here.

Test systems include ACHN; CAKI-1; CCRF-CEM; EKVX; HOP-62; KM12; NCI-H226; NCI/ADR-RES; OVCAR-4; OVCAR-5; RPMI-8226; SK-MEL-28; SK-OV-3; SNB-75; SR; SW-620; U-251; UO-31.
Holding throughout (assay): NCI anticancer screen, dose series, 48 h

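Compound exposure: 48 hours, 5 concentrations, 96-well plates. Here, GI50 denotes the concentration required for 50% inhibition of growth.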 The source made the active and inactive calls. No stated cut-off is given here; in the data, active = GI50 up to about 1.1 µM and inactive = higher.

On to `O=C1CCC2C(O)c3cc4c(cc3C(c3ccc5c(c3)OCO5)N12)OCO4` (stereo unspecified), for which the GI50 with ACHN is > 100 µM (inactive); with CAKI-1, > 100 µM (inactive); with CCRF-CEM, > 100 µM (inactive); in the experiment on EKVX it was > 100 µM (inactive); in the experiment with HOP-62, 25 µM (inactive); in the experiment with KM12 it was > 100 µM (inactive). The GI50 in the experiment with NCI-H226 was 67.9 µM (inactive); in the experiment with NCI/ADR-RES, 94 µM (inactive); in the experiment with OVCAR-4, > 100 µM (inactive); with OVCAR-5 it was > 100 µM (inactive); with RPMI-8226 it was > 100 µM (inactive); in the experiment with SK-MEL-28, > 100 µM (inactive). The GI50 in the experiment on SK-OV-3 is 40 µM (inactive); with SNB-75, 16.3 µM (inactive); with SR, > 100 µM (inactive); in the experiment on SW-620, > 100 µM (inactive); with U-251 it was 26.1 µM (inactive); in the experiment with UO-31, 59.7 µM (inactive).

With `O=C1OC(C2Cc3cc4c(cc3C2=O)CCC4)c2ccccc21` (stereo unspecified), the GI50 was 47.9 µM (inactive) in the experiment on ACHN; > 100 µM (inactive) in the experiment on CAKI-1; 25.6 µM (inactive) in the experiment on CCRF-CEM; 49.5 µM (inactive) in the experiment on EKVX; 65 µM (inactive) with HOP-62; 35.9 µM (inactive) in the experiment with KM12. The GI50 in the experiment with NCI-H226 is 20.6 µM (inactive); with NCI/ADR-RES it was 63.4 µM (inactive); in the experiment with OVCAR-4 it was 78.3 µM (inactive); with OVCAR-5, > 100 µM (inactive); with RPMI-8226, 35.3 µM (inactive); in the experiment with SK-MEL-28, 38.5 µM (inactive). For the same compound, the GI50 in the experiment on SK-OV-3 was 21.7 µM (inactive); with SNB-75 it was 51.4 µM (inactive); in the experiment with SR it was 35.7 µM (inactive); with SW-620, 37.3 µM (inactive); in the experiment with U-251 it was 34 µM (inactive); in the experiment on UO-31, 55.6 µM (inactive).

Turning to `CN(C)c1ccc(C2SCC(=O)N2c2ccc(Oc3ccc(Cl)cc3)c(Cl)c2)cc1` (stereo unspecified), the GI50 is 29.7 µM (inactive) with ACHN; 32.4 µM (inactive) with CAKI-1; 18.5 µM (inactive) in the experiment with CCRF-CEM; 22.8 µM (inactive) in the experiment on EKVX; 20.5 µM (inactive) in the experiment on HOP-62; 20.3 µM (inactive) in the experiment with KM12. Moreover, the GI50 in the experiment with NCI-H226 was 30.4 µM (inactive); with NCI/ADR-RES, 22.3 µM (inactive); in the experiment on OVCAR-4 it was 22.9 µM (inactive); in the experiment with OVCAR-5, 26.4 µM (inactive); in the experiment with RPMI-8226 it was 15.2 µM (inactive); with SK-MEL-28 it was 35 µM (inactive). Also, the GI50 in the experiment on SK-OV-3 was 29 µM (inactive); in the experiment with SNB-75 it was 17.6 µM (inactive); with SR, 27.5 µM (inactive); in the experiment on SW-620, 29.4 µM (inactive); in the experiment with U-251, 20.5 µM (inactive); in the experiment on UO-31 it was 11.6 µM (inactive).

For the compound `CC1OC2OC3C(OCC(O)C3O)OC(=O)[C@]34CCC(C)(C)CC3C3=CCC5[C@@]6(C)C[C@H](O)[C@H](OC7OC(CO)C(O)C(O)C7OC7OC(COC(=O)CC(C)(O)CC(=O)OC1C(OC1OC(CO)C(O)C(O)C1O)C2O)C(O)C(O)C7O)[C@@](C)(CO)C6CC[C@@]5(C)[C@]3(C)CC4` (stereo partly specified), the GI50 is 2.72 µM (inactive) with ACHN; 7.53 µM (inactive) with CAKI-1; 4.18 µM (inactive) with CCRF-CEM; 1.46 µM (inactive) with HOP-62; 2.37 µM (inactive) in the experiment on KM12; 7.91 µM (inactive) in the experiment on NCI-H226. Also, the GI50 is 3.15 µM (inactive) with NCI/ADR-RES; 5.16 µM (inactive) with OVCAR-4; 2.01 µM (inactive) in the experiment with OVCAR-5; 2.51 µM (inactive) with RPMI-8226; 1.3 µM (inactive) with SK-MEL-28; 12.2 µM (inactive) in the experiment on SK-OV-3. In addition, the GI50 in the experiment on SNB-75 is 2.82 µM (inactive); in the experiment with SR it was 3.66 µM (inactive); in the experiment with SW-620 it was 0.359 µM (active); in the experiment with U-251, 2.9 µM (inactive); in the experiment with UO-31, 1.64 µM (inactive).
